Measured values reported in PubChem BioAssay (NCI).
“And” between values parts separate entries of the source, which are not always exact repeats. Equal values may be shown once.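 Compound exposure: 48 hours, 5 concentrations, 96-well plates. TGI: total growth inhibition.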

Legend:
Assay in all cases: growth of human tumour cells (NCI), 48 h
[1] = test system: HCT-116 colon
[2] = test system: LOX IMVI melanoma
[3] = test system: SK-MEL-2 melanoma
[4] = test system: LXFL 529 NSCLC
[5] = test system: DLD-1 colon
[6] = test system: M19-MEL melanoma
[7] = test system: DMS 114 small cell lung
[8] = test system: HOP-18 NSCLC
[9] = test system: KM20L2 colon
[10] = test system: SNB-78 CNS
[11] = test system: DMS 273 small cell lung
[12] = test system: XF 498 CNS
[13] = test system: RXF-631 renal

Question: For `CC1=C(S(=O)c2ccc(C)cc2)CCC2(CCCCO2)O1` (stereo not given), which TGI [1] is on record?
Answer: > 100 µM

Question: What about the TGI [2] of the same molecule?
Answer: > 100 µM

Question: And the TGI [3]?
Answer: > 100 µM

Question: What does the source list for `N#CC12CC=C(c3ccccc3)N=C1NC(c1ccccc1)=CC2` (stereo not given)?
Answer: TGI [1]: > 100 µM; TGI [2]: > 100 µM; TGI [3]: > 100 µM

Question: How did the TGI [1] turn out when `CC1C2CC(CC2O)C1(C)C` (stereo not given) was run?
Answer: > 100 µM

Question: For `COc1ccc2[nH]c3c(C)c4ccnc(NCCCN(C)CCCN)c4c(C)c3c2c1`, which TGI [3] is on record?
Answer: 0.809 µM

Question: What does the source list for `Cc1ccc(S(=O)(=O)Nn2c(C)cc3ccc(S(=O)(=O)Nc4ccccc4[N+](=O)[O-])cc3c2=O)cc1`?
Answer: TGI [1]: > 100 µM; TGI [2]: > 100 µM; TGI [3]: > 100 µM

Question: `CC(=O)C1=C(C)N(c2ccc(C)cc2)C2(O)C=CC(=O)C3=C(O)c4ccccc4C(=O)C312` (stereo not given) was tested. Which TGI [1] did it give?
Answer: > 100 µM

Question: What about the TGI [2] of the same molecule?
Answer: > 100 µM

Question: What about the TGI [3] of the same molecule?
Answer: 30.3 µM

Question: For `CSc1ncc2c(C#N)c3ccccn3c(=O)c2n1`, which TGI [1] is on record?
Answer: > 100 µM

Question: And the TGI [2]?
Answer: > 100 µM

Question: What about the TGI [3] of the same molecule?
Answer: > 100 µM

Question: How did the TGI [1] turn out when `O=[N+]([O-])c1ccc(OP(=O)(O)OCC2OC(CP(=O)(O)O)C(O)C2O)cc1` (stereo not given) was run?
Answer: > 100 µM

Question: What about the TGI [2] of the same molecule?
Answer: > 100 µM

Question: And the TGI [3]?
Answer: > 100 µM

Question: Which results are given for `COc1cc(CC(C)N[C@@H](C)c2ccccc2)cc(OC)c1` (stereo not given in full)?
Answer: TGI [1]: 26 µM and > 100 µM; TGI [3]: > 100 µM

Question: With `O=S(=O)(c1ccccc1)n1cnc(CCc2ccccc2)n1` as the molecule, how does the TGI [1] read?
Answer: > 100 µM

Question: And the TGI [4]?
Answer: > 100 µM

Question: And the TGI [5]?
Answer: > 100 µM

Question: What about the TGI [6] of the same molecule?
Answer: > 100 µM

Question: What about the TGI [7] of the same molecule?
Answer: > 100 µM

Question: And the TGI [2]?
Answer: > 100 µM

Question: And the TGI [8]?
Answer: > 100 µM

Question: What about the TGI [3] of the same molecule?
Answer: > 100 µM

Question: What about the TGI [9] of the same molecule?
Answer: > 100 µM

Question: And the TGI [10]?
Answer: > 100 µM

Question: What about the TGI [11] of the same molecule?
Answer: > 100 µM

Question: For `Cc1no[n+]([O-])c1/C=N/NS(=O)(=O)c1ccccc1`, which TGI [1] is on record?
Answer: > 100 µM

Question: And the TGI [4]?
Answer: > 100 µM

Question: And the TGI [5]?
Answer: > 100 µM

Question: What about the TGI [6] of the same molecule?
Answer: > 100 µM

Question: And the TGI [7]?
Answer: > 100 µM

Question: What about the TGI [8] of the same molecule?
Answer: > 100 µM

Question: What about the TGI [3] of the same molecule?
Answer: > 100 µM

Question: What about the TGI [9] of the same molecule?
Answer: > 100 µM

Question: What does the source list for `Nc1ncnc2c1ccn2CC=C(CO)CO`?
Answer: TGI [1]: > 100 µM; TGI [2]: > 100 µM; TGI [3]: > 100 µM

Question: With `CC(=O)N1N=C(c2ccccc2Nc2ccccc2C2=NN(C(C)=O)C(c3ccccc3)O2)OC1c1ccccc1` (stereo not given) as the molecule, how does the TGI [1] read?
Answer: > 100 µM

Question: What about the TGI [2] of the same molecule?
Answer: > 100 µM

Question: What about the TGI [3] of the same molecule?
Answer: > 100 µM

Question: How did the TGI [1] turn out when `CC(=O)OCC1=C2C(OC(=O)C(C)C)CC3(COC(C)=O)OC3/C=C\C3(C)OC3C2OC1=O` (stereo not given) was run?
Answer: > 100 µM

Question: And the TGI [2]?
Answer: > 100 µM

Question: And the TGI [3]?
Answer: > 100 µM

Question: `O=CN(O)CC(=O)O.[Ni]` was tested. Which TGI [1] did it give?
Answer: > 100 µM

Question: And the TGI [2]?
Answer: > 100 µM

Question: With `CN1C(=O)CN=C(c2ccccc2F)c2cc(N=C=S)ccc21` as the molecule, how does the TGI [1] read?
Answer: > 100 µM

Question: What about the TGI [2] of the same molecule?
Answer: > 100 µM

Question: And the TGI [3]?
Answer: > 100 µM

Question: Which results are given for `CCCC(=O)n1[nH]c(=O)n(C(C)(C)C)c1=O`?
Answer: TGI [1]: > 100 µM; TGI [2]: > 100 µM; TGI [3]: > 100 µM

Question: Which results are given for `C=C(C)C1Cc2c(cc(OC)c3c(=O)c4ccccc4n(C)c23)O1` (stereo not given)?
Answer: TGI [12]: > 100 µM; TGI [1]: > 100 µM; TGI [4]: > 100 µM; TGI [5]: > 100 µM; TGI [6]: > 100 µM; TGI [7]: > 100 µM; TGI [2]: > 100 µM; TGI [8]: > 100 µM; TGI [3]: > 100 µM; TGI [9]: > 100 µM; TGI [10]: > 100 µM; TGI [11]: > 100 µM

Question: For `NS(=O)(=O)c1ccc(N=Nc2ccc(O)c(O)c2)cc1`, which TGI [1] is on record?
Answer: 26.2 µM

Question: And the TGI [2]?
Answer: 36 µM

Question: What about the TGI [3] of the same molecule?
Answer: 34 µM

Question: Which results are given for `COc1ccc(N2C(=O)C(C#N)=C(SC)C(C#N)C2=O)cc1` (stereo not given)?
Answer: TGI [1]: > 100 µM; TGI [2]: > 100 µM; TGI [3]: > 100 µM

Question: `C[N+](C)(C)CC(=O)N/N=C/c1oc(-c2cccc([N+](=O)[O-])c2)c(-c2cccc([N+](=O)[O-])c2)c1[N+](=O)[O-]` was tested. Which TGI [1] did it give?
Answer: > 100 µM

Question: And the TGI [5]?
Answer: > 100 µM

Question: And the TGI [6]?
Answer: > 100 µM

Question: What about the TGI [7] of the same molecule?
Answer: > 100 µM

Question: And the TGI [3]?
Answer: > 100 µM

Question: What about the TGI [9] of the same molecule?
Answer: > 100 µM

Question: And the TGI [13]?
Answer: > 100 µM

Question: How did the TGI [1] turn out when `Nc1nc(Cl)cc(NCC2(CO)CC(c3ccccc3)C2)n1` (stereo not given) was run?
Answer: > 100 µM

Question: And the TGI [2]?
Answer: > 100 µM

Question: What about the TGI [3] of the same molecule?
Answer: > 100 µM

Question: With `CNC(=O)C1CCC(=O)N1CN(C(C)=O)c1ccccc1` (stereo not given) as the molecule, how does the TGI [1] read?
Answer: > 100 µM

Question: And the TGI [2]?
Answer: > 100 µM

Question: What about the TGI [3] of the same molecule?
Answer: > 100 µM

Question: `CC(C)(C)C(=O)CC(=O)C(F)(F)C(F)(F)C(F)(F)F.CC(C)(C)C(=O)CC(=O)C(F)(F)C(F)(F)C(F)(F)F.CC(C)(C)C(=O)CC(=O)C(F)(F)C(F)(F)C(F)(F)F.[Er]` was tested. Which TGI [1] did it give?
Answer: > 100 µM

Question: And the TGI [2]?
Answer: > 100 µM

Question: Which TGI [1] does the source give for `Nc1cccc(/C=C/CN2CCN(CCOC(c3ccccc3)c3ccccc3)CC2)c1` here?
Answer: 25.4 µM

Question: And the TGI [2]?
Answer: 28.9 µM

Question: What about the TGI [3] of the same molecule?
Answer: 33.6 µM

Question: With `S=C1NCCN1C(=S)NC1CCCCC1` as the molecule, how does the TGI [1] read?
Answer: > 100 µM

Question: And the TGI [2]?
Answer: > 100 µM

Question: And the TGI [3]?
Answer: 96 µM

Question: With `Cc1cc(CN(Cc2ccccc2)Cc2nc3ccccc3[nH]2)c(O)c(CN(Cc2nc3ccccc3[nH]2)Cc2nc3ccccc3[nH]2)c1` as the molecule, how does the TGI [1] read?
Answer: 23.1 µM

Question: What about the TGI [2] of the same molecule?
Answer: 13.3 µM

Question: And the TGI [3]?
Answer: 36.1 µM

Question: How did the TGI [1] turn out when `COC(=O)c1ccc(-n2c(C)nc(=O)c(-c3ccccc3)c2C)cc1` was run?
Answer: > 100 µM

Question: And the TGI [2]?
Answer: > 100 µM

Question: And the TGI [3]?
Answer: > 100 µM

Question: Which results are given for `O=C1CC(NC2CC(=O)c3c(Br)sc(Br)c32)c2c(Br)sc(Br)c21` (stereo not given)?
Answer: TGI [1]: 6.46 µM; TGI [2]: 4.68 µM; TGI [3]: 14.5 µM

Question: With `NC(CCC(=O)NC(CSC(=O)N(O)c1ccc(Cl)cc1)C(=O)NCC(=O)O)C(=O)O` (stereo not given) as the molecule, how does the TGI [1] read?
Answer: > 0.5 µM

Question: And the TGI [3]?
Answer: > 0.5 µM

Question: What does the source list for `CCOC(=O)CCC(NC(=O)c1ccc(OCc2ccc3nc(OC)c(OC)nc3c2)cc1)C(=O)OCC` (stereo not given)?
Answer: TGI [1]: > 100 µM; TGI [2]: > 100 µM; TGI [3]: 74.6 µM

Question: How did the TGI [1] turn out when `Oc1ccc(NCc2cc(O)ccc2O)cc1` was run?
Answer: 35.8 µM

Question: And the TGI [2]?
Answer: 38 µM

Question: What about the TGI [3] of the same molecule?
Answer: 36.3 µM

Question: What does the source list for `c1ccc(CNCCCNCCCCNCCCNCc2ccccc2)cc1`?
Answer: TGI [1]: 14.4 µM; TGI [2]: 14.2 µM; TGI [3]: 31.4 µM

Question: `CC(=O)C(CN(C)Cc1ccccc1)C(c1ccccc1)c1c(O)c2ccccc2oc1=O` (stereo not given) was tested. Which TGI [1] did it give?
Answer: > 100 µM

Question: What about the TGI [4] of the same molecule?
Answer: > 100 µM

Question: And the TGI [5]?
Answer: > 100 µM

Question: What about the TGI [6] of the same molecule?
Answer: > 100 µM

Question: What about the TGI [7] of the same molecule?
Answer: > 100 µM

Question: What about the TGI [2] of the same molecule?
Answer: > 100 µM

Question: And the TGI [3]?
Answer: > 100 µM

Question: What about the TGI [9] of the same molecule?
Answer: > 100 µM

Question: What about the TGI [10] of the same molecule?
Answer: > 100 µM

Question: What about the TGI [11] of the same molecule?
Answer: > 100 µM

Question: With `O=C1NC(=O)/C(=C/c2ccc(S(=O)(=O)N/N=C/c3ccccc3)cc2)N1` as the molecule, how does the TGI [1] read?
Answer: > 100 µM

Question: And the TGI [2]?
Answer: > 100 µM

Question: And the TGI [3]?
Answer: > 100 µM
